Assay results reported in patent EP2111861A1, “Compositions of phosphodiesterase type IV inhibitors” (Ranbaxy Laboratories Limited, priority 2008, dated 2009).
pIC50: −log10 of the molar value.

Legend:
[1] = test system: LPS induced airway hyperreactivity; test: LPS induced airway hyperreactivity (PC100, Penh), PDE-IV inhibitor in combination with muscarinic receptor antagonist; type: in vivo, Wistar rats; conditions: intratracheal
Method: MRA (1ng/kg to 1mg/kg) and PDE-IV inhibitor (1ng/kg to 1mg/kg) were instilled intratracheally under anesthesia either alone or in combination.
Wistar rats weighing 200±20gm were used in the study. Rats had free access to food and water. On the day of experiment, animals were exposed to lipopolysaccharide (LPS, 100µg/ml) for 40 min. One group of vehicle treated rats was exposed to phosphate buffered saline (PBS) for 40 min. four hours after LPS/PBS exposure, animals were placed inside a whole body plethysmograph (Buxco Electronics, USA) and exposed to PBS or increasing concentration of acetylcholine (1, 6, 12, 24, 48 and 96 mg/ml) aerosol until Penh values (index of airway resistance) of rats attained 2 times the value (PC-100) seen with PBS alone. The respiratory parameters were recorded online using Biosystem XA software, (Buxco Electronics, USA). Penh, at any chosen dose of acetylcholine was expressed as percent of PBS response and using a nonlinear regression analysis PC100 (2 folds of PBS value) values were computed. Percent inhibition was computed using the following formula. % Inhibition = (PC100_LPS -PC100_TEST)/(PC100_LPS -PC100_PBS) × 100 [formula] Where, PC100LPS = PC100 in vehicle treated and LPS challenged group PC100TEST = PC100 in group treated with a given dose of test compound PC100PBS = PC100 in vehicle treated group challenged with PBS

[2] = test system: TNF-α release from human PBMCs; test: Cell based Assay for TNF-α release, PDE IV inhibitor in combination with p38 MAP Kinase inhibitors; conditions: inhibiting TNF-α release from human PBMCs, LPS stimulated, compound alone
Method: Blood was collected in heparin or EDTA vacutainers from healthy human volunteers and Peripheral Blood Mononuclear Cells isolated using Ficoll Hypaque gradient. The cells were resuspended in serum free RPMI 1640 medium at a concentration of 2 million cells/ml.). 1 ml of this cell suspension was co-incubated with 20 µl of compound, alone or in combination, for 10 min in a flat bottom 96 well microtiter plate. Compounds were dissolved in DMSO initially and diluted in medium for a final concentration of 0.2 % DMSO. LPS (1 µg/ml, final concentration) was then added at a volume of 10 µl per well. After 30 min, 20 µl of fetal calf serum (final concentration of 10 %) was added to each well. Cultures were incubated overnight at 37 °C in an atmosphere of 5 % CO2 and 95 % air. Supernatant were then removed and tested by ELISA for TNF-α release using a commercial kit (e.g. BD Biosciences). The level of TNF-α in treated wells was compared with the vehicle treated controls and inhibitory potency of compound was expressed as IC50 values calculated from the percent inhibition values by using Graph pad prism. Percent inhibition = 100-(Percent TNF-α drug treated)/(Percent TNF-α in vehicle treated) × 100 [formula]

[3] = test system: TNF-α release; test: Cell based Assay for TNF-α release, PDE IV inhibitor in combination with corticosteroids; conditions: Compound No. 266 in combination with corticosteroid (not named), human PBMC
Method: Blood was collected in heparin or EDTA vacutainers from healthy human volunteers and Peripheral Blood Mononuclear Cells isolated using Ficoll Hypaque gradient. The cells were resuspended in serum free RPMI 1640 medium at a concentration of 2 million cells/ml). 1 ml of this cell suspension was co-incubated with 20 µl of compound, alone or in combination (PDE IV inhibitor and corticosteroid), for 10 min in a flat bottom 96 well microtiter plate The aforesaid compounds were dissolved in DMSO initially and diluted in medium for a final concentration of 0.2 % DMSO. LPS ([…], final concentration) was then added at a volume of 10 µl per well. After 30 min, 20 µl of fetal calf serum (final concentration of 10 %) was added to each well. Cultures were incubated overnight at 37 °C in an atmosphere of 5 % CO2 and 95 % air. Supernatant was then removed and tested by ELISA for TNF-α release using a commercial kit (e.g. BD Biosciences). The level of TNF-α in treated wells was compared with the vehicle treated controls and inhibitory potency of compound was expressed as IC50 values calculated by from percent inhibition values using Graph pad prism. […] Percent inhibition = 100-(Percent TNF-α drug treated)/(Percent TNF-α in vehicle treated) × 100 [formula]

[4] = test system: LPS induced rat neutrophilia; test: LPS induced rat neutrophilia model, PDE IV inhibitor in combination with corticosteroids; type: in vivo; conditions: Compound No. 266 in combination with corticosteroid (not named), intratracheal, neutrophil count in BAL
Method: PDE-4 inhibitor and corticosteroids were instilled intratracheally under anesthesia at different doses, either alone or in combination. LPS challenge: One hour after drug instillation, (LPS 20 µg/200 µl of PBS) was instilled intratracheally. One group of vehicle treated rats were instilled with 200 µl of phosphate buffered saline (PBS) and served as negative control. Bronchoalveolar lavage (BAL): Two hours after LPS challenge, bronchoalveolar lavage was performed; the animals were sacrificed using thiopentone sodium (150 mg/kg/i.p.). Trachea was cannulated and BAL was performed using Hank's Buffer salt solution (HBSS) (5 ml x 10 times). The bronchoalveolar lavage fluid was centrifuged at 800 g for 5 min, at 4°C and the pellet was resuspended in 1 ml HBSS. Total leukocyte count was performed in the resuspended sample by using hemocytometer. A cytocentrifuge preparation was made using the resuspended bronchoalveolar lavage fluid on a glass slide, stained with Leishmann's stain and then differential leukocyte counts was performed for computation of neutrophil. Statistical significance of each parameter in different treatment groups was determined with respective to vehicle control group using one-way analysis of variance followed by Dunnett's 't' test for multiple comparison. A p level of ≤ 0.05 was considered to be statistically significant.

[5] = Compound No. 266 in combination with Tiotropium (MRA), PC100

Cc1n(CCCOC(=O)[C@](O)(c2ccccc2)[C@@H]2CCC(F)(F)C2)cc[n+]1Cc1ccccc1.[Br-] [Compound No. 104aa, 3-Benzyl-1-[3-({(2R)-2-[(1R)-3,3-difluorocyclopentyl]-2-hydroxy-2-phenylacetyl}oxy)propyl]-2-methyl-1H-imidazol-3-ium bromide]
effect when administered alone ([1]; 10 ng/kg): not effective

Cc1ccccc1-c1cc2cnc(NC3CCN(S(C)(=O)=O)CC3)nc2n([C@H]2CCOC2)c1=O [Compound No. 44a, 6-(2-Methylphenyl)-2-{[1-(methylsulfonyl)piperidin-4-yl]amino}-8-[(3S)-tetrahydrofuran-3-yl]pyrido[2,3-d]pyrimidin-7(8H)-one]
pIC50 ([2]; PBMC): 8.52

COc1cc(C2=NO[C@]3(CCOC3)C2)ccc1OC(F)F (single isomer, unassigned) [Compound No. 266, (5S or 5R)-3-[4-(Difluoromethoxy)-3-methoxyphenyl]-1,7-dioxa-2-azaspiro[4.4]non-2-ene]
effect when administered alone ([1]; 10 µg/kg): ineffective | Combination Index [1, 5]: 0.26 | synergy with Tiotropium (MRA) [1, 5]: synergy | pIC50 [2]: 7.12 | Combination Index [3]: 0.21 | synergy with corticosteroids [3]: synergy | Combination Index [4]: 0.58 | synergy with corticosteroids [4]: synergy

Cc1ccccc1-c1cc2cnc(NC3CCN(S(C)(=O)=O)CC3)nc2n([C@@H]2CCOC2)c1=O [Compound No. 46a, 6-(2-Methylphenyl)-2-{[1-(methylsulfonyl)piperidin-4-yl]amino}-8-[(3R)-tetrahydrofuran-3-yl]pyrido[2,3-d]pyrimidin-7(8H)-one]
pIC50 ([2]; PBMC): 8.70

Cc1ccccc1-c1cc2cnc(NC3CCN(C(=O)NC(C)C)CC3)nc2n([C@@H]2CCOC2)c1=O [Compound No. 47a, N-Isopropyl-4-({6-(2-methylphenyl)-7-oxo-8-[(3R)-tetrahydrofuran-3-yl]-7,8-dihydropyrido[2,3-d]pyrimidin-2-yl}amino)piperidine-1-carboxamide]
pIC50 ([2]; PBMC): 7.66

O=c1ncn2nc(Sc3ccc(F)cc3F)ccc2c1-c1c(Cl)cccc1Cl [Vx-745, reference compound]
pIC50 ([2]; PBMC): 7.85
